Test [1] has as its system Human immunodeficiency virus 1. The test is described as follows: Antiviral activity against HIV1 bearing VSV envelope infected in human HeLa CD4 cells coexpressing LTR/beta-Gal gene assessed as reduction in virus-induced beta-galactosidase reporter gene activity after 72 hrs by single-cycle infection assay. Type of test: functional, organism-based. Conditions: Human immunodeficiency virus 1, HeLa.

In test [2] the test system is Human immunodeficiency virus 1. Put plainly: Antiviral activity against HIV1 bearing HIV1 NL4-3 envelope infected in human HeLa CD4 cells coexpressing LTR/beta-Gal gene assessed as reduction in virus-induced beta-galactosidase reporter gene activity after 72 hrs by single-cycle infection assay. Type of test: functional, organism-based. To be noted: Human immunodeficiency virus 1, HeLa.

The test system of test [3] is Human immunodeficiency virus 1. The test is described as follows: Antiviral activity against HIV1 bearing HIV1 NL4-3 envelope infected in human MT2 cells assessed as inhibition of HIV-envelope packed virions at 0.12 uM after 72 hrs by virus production assay relative to control. Type of test: functional. To be noted: Human immunodeficiency virus 1, MT2, 72 h.
Test [4] has as its system Human immunodeficiency virus 1. The test is described as follows: Antiviral activity against HIV1 bearing VSV envelope infected in human MT2 cells assessed as inhibition of VSV-envelope packed virions at 0.12 uM after 72 hrs by virus production assay relative to control. Type of test: functional. Conditions: Human immunodeficiency virus 1, MT2, 72 h.
For test [5], the system named is Human immunodeficiency virus 1. The test is described as follows: Antiviral activity against HIV1 NL4-3 transfected in HEK293 cells assessed as inhibition of infectious virus production at 0.12 uM. The class given is functional. Details: scale not given: the % may be the effect or the level left.
Test [6] deals with Human immunodeficiency virus 1. Put plainly: Inhibition of HIV1 NL4-3 proteins incorporation into virions transfected in HEK293 cells assessed as unprocessed gp160 Env protein at 0.12 uM by Western blot. Type of test: functional, organism-based.
Test [7] deals with Human immunodeficiency virus 1. The test is described as follows: Inhibition of HIV1 NL4-3 proteins incorporation into virions transfected in HEK293 cells assessed as aberrant Env protein at 0.12 uM by Western blot. Type of test: functional, organism-based.

SMILES strings stand for the structures. Calls of active or inactive are those of the source. The rule behind the calls is not given here.

The values below come from ChEMBL document CHEMBL1153832, “Identification and characterization of UK-201844, a novel inhibitor that interferes with human immunodeficiency virus type 1 gp160 processing” (Antimicrob Agents Chemother, 2007).

Turning to `Cc1c(O)cccc1C(=O)N[C@@H](CSc1ccccc1)[C@H](O)CN1C[C@H]2CCCC[C@H]2C[C@H]1C(=O)NC(C)(C)C` [NELFINAVIR], the EC50 in test [1] and in test [2] was more than 1000 nM each time. In addition, the values for the inhibition in vivo at 0.12 µM in test [3] and in test [4] were 88% and 97%, respectively. For the same compound, the Activity in test [5] is recorded as 94%. For the same compound, the outcome in test [6] and in test [7] was Active.

For `O=C(O)C1=CC(=C(c2ccc(O)c(C(=O)O)c2)c2ccc(O)c(C(=O)O)c2)C=CC1=O` [AURINTRICARBOXYLIC ACID], the concentration for a half-maximal effect (EC50) in test [1] was more than 76000 nM; in test [2], 76 nM.
